Results: patent US20100311782A1, “SUBSTITUTED PIPERIDINYLPROPANOIC ACID COMPOUNDS AND METHODS OF THEIR USE” (priority 2009, published 2010)

Tests used:
[1] = target: T1, cloned human μ opioid receptor (Homo sapiens, UniProt P35372); assay: Receptor binding, [3H]diprenorphine displacement, mu opioid receptor; details: [3H]diprenorphine, cloned human mu opioid receptor; read-out: MOR Ki
T1 construct: expressed in transfected cells

[2] = target: T2, cloned human δ opioid receptor (Homo sapiens, UniProt P41143); assay: Receptor binding, [3H]diprenorphine displacement, delta opioid receptor; details: read-out: DOR Ki
T2 construct: expressed in transfected cells
T2 sequence (P41143 whole entry): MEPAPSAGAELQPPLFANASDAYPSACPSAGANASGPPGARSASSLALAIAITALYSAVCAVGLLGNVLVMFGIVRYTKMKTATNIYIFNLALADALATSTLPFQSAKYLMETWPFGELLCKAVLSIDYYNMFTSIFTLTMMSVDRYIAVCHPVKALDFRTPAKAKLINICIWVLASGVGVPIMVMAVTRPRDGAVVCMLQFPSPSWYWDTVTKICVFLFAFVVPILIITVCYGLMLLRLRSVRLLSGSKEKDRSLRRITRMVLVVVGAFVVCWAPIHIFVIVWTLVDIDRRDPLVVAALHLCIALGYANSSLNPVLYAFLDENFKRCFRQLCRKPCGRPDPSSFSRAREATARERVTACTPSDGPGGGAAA

[3] = target: T3, cloned human κ opioid receptor (Homo sapiens, UniProt P41145); assay: Receptor binding, [3H]diprenorphine displacement, kappa opioid receptor; details: [3H]diprenorphine, cloned human kappa opioid receptor; read-out: KOR Ki
T3 construct: expressed in transfected cells
T3 sequence (P41145 whole entry): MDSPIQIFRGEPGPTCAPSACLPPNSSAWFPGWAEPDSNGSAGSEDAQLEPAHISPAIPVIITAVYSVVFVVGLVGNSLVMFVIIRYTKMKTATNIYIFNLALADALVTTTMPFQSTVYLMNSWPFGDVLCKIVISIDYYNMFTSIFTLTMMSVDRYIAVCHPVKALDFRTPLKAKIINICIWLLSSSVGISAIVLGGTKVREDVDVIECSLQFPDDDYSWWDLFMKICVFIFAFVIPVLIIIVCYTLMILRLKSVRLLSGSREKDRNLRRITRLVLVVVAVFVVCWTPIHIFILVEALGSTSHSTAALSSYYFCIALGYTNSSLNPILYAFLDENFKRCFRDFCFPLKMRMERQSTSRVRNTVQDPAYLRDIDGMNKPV

[4] = target: T1, cloned human μ opioid receptor; assay: Inhibition of agonist (loperamide)-stimulated [35S]GTPγS binding; format: biochemical; details: in vitro studies
Experimental: The potencies of the antagonists were assessed by their abilities to inhibit agonist-stimulated [^35S]GTPγS binding to membranes containing the cloned human μ, κ, or δ opioid receptors. The agonist used for the μ opioid receptor was loperamide.
To determine the IC50 value, which was the concentration to give half-maximal inhibition of agonist-stimulated [^35S]GTPγS binding, the amount of [^35S]GTPγS bound in the presence of a fixed concentration of agonist and various concentrations of antagonist was measured. The fixed concentration of agonist was the EC80 for the agonist, which was the concentration to give 80% of the relative maximum stimulation of [^35S]GTPγS binding. The IC50 value was determined from a best nonlinear regression fit of the data to the following equation,
where Y is the amount of [^35S]GTPγS bound at each concentration of antagonist, Bottom is the calculated amount of [^35S]GTPγS bound in the presence of an infinite concentration of antagonist, Top is the calculated amount of [^35S]GTPγS bound in the absence of added antagonist, X is the logarithm of the concentration of antagonist, and LogIC50 is the logarithm of the concentration of antagonist where the amount of [^35S]GTPγS bound is halfway between Bottom and Top. The nonlinear regression fit was performed using GraphPad Prism® version 3.00 for Windows (GraphPad Software, San Diego, Calif.).

T1 sequence (P35372 whole entry): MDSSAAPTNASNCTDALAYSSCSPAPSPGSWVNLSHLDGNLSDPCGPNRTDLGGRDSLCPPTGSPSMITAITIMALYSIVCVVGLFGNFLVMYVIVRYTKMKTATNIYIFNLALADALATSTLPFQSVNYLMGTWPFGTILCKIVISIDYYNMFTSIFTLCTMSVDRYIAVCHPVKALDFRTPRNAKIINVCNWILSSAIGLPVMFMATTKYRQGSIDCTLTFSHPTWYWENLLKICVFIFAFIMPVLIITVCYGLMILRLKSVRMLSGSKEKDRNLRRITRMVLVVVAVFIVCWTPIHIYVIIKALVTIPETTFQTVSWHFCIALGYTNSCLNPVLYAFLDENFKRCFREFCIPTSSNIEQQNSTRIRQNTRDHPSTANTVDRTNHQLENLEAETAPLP

Question: For `C[C@H]1CN(C[C@H](Cc2ccccc2)C(=O)O)CC[C@@]1(C)c1cccc(C(=O)O)c1` [Example C-1, 3-[1-(2S-Carboxy-3-phenyl-propyl)-3R,4R-dimethyl-piperidin-4-yl]-benzoic acid, reference compound], which Ki [1] is on record?
Answer: 2.29 µM

Question: What about the Ki [2] of the same compound?
Answer: > 10 µM

Question: What about the Ki [3] of the same compound?
Answer: > 10 µM

Question: What about the “inhibition of agonist-stimulated [35S]GTPγS binding relative to the other test compounds” value [4] of the same compound?
Answer: significantly reduced inhibition
